In patent US5665555A, “Method of determining the effect of a test substance on a clone of a Centroptilum triangulifer mayfly” (priority 1993, dated 1997):
Entries after “also recorded” stand apart in the source; their conditions may differ.

Test system: adult C. triangulifer
Assay: Chlordane residue (body burden), relative composition and metabolism in adult C. triangulifer by ECNI-MS
Format: in vivo, Centroptilum triangulifer (WCC 2 clone)
Details: for metabolism by C. triangulifer: 4.3 μg/l technical chlordane; for amount of cis- and trans-chlordane relative to the nonachlors in C. triangulifer: compared to original distribution in technical chlordane; for relative composition of principal chlordane components or metabolites in mayflies: reared at 4.3 μg/l chlordane; for bioaccumulation in C. triangulifer: in vivo
Protocol: Surviving C. triangulifer individuals from the various controls and treatment groups were collected daily as subimagos (pre-adults) from emergence cages. Most subimagos emerging from a given vessel were immediately killed, measured, dried, and weighed. The viability of eggs obtained from females that had been chronically exposed as larvae to the various control and treatment conditions was also assessed. Thus, a few subimagos from certain treatments were kept alive for 24 h (n=8, 5, 8, 6, 10, and 6 for the 4.3, 9.4, 15.4, 27.4, and 56.3 μg/l and control groups, respectively), during which time they molted to the adult stage and were allowed to oviposit into individual glass jars for assessing hatch success as described above. A few adults from the 4.3 μg/l group were frozen intact at […] for later analysis for chlordane residue by electron capture negative ionization mass spectrometry (ECNI-MS). Chiordane residue in adults reared as larvae in 0.005, 0.05, and 0.5 μg/l treatments was also determined.
Chlordane was extracted from water samples by liquid-liquid extraction in a separatory funnel with three aliquots of hexane. PCB204 (2,2',3,4,4',5,6,6'-octachlorobiphenyl) was added as a surrogate standard before extraction. Each hexane aliquot was rinsed into the plastic sample bottle after transfer of the water sample and before its addition to the separatory funnel containing the water sample to ensure removal of chlordane adsorbed on the walls. The three hexane aliquots were combined and evaporated with a rotary evaporator and then further evaporated down to 100 μl under nitrogen for the final step. Chlordane components and metabolites were quantified from the relative responses of the surrogate standard and the authentic standards of heptachlor; trans- and cis-chlordane; trans- and cis-nonachlor; and the two metabolites, heptachlor epoxide and oxychlordane (n.b. cis-nonachlor was estimated from the response factor for trans-nonachlor). Adult body burdens and water concentrations of chlordane residue were calculated by comparison of the component areas with that of the surrogate standard to correct for losses during extraction and purification.
Adult mayflies from a given replicate vessel per treatment were dried and combined in lots of five to thirteen organisms for extraction and analysis. The mayflies were ground in 0.5 ml methanol after addition of the surrogate standard PCB204 and extracted by sonication with two 10 ml aliquots of a 1:1 methanol:methylene chloride mixture. Extracts were filtered through pasteur pipettes loaded with approximately 1.0 g of Na2 SO4 and clean glass wool. Chlordane components and the surrogate standard were separated from other components in the extract on 1% deactivated silica (0.8 g) microcolumns (organochlorines were eluted with 20% methylene chloride in hexane).
Five principal chlordane components and two metabolites (heptachlor, cis- and trans-chlordane, cis- and trans-nonachlor, heptachlor epoxide, and oxychlordane) were identified and quantified by ECNI-MS, using a Hewlett Packard 5988/RTE-A mass spectrometer equipped with a Hewlett Packard 5890 GC. Instrumental conditions were: GC -0.25 mm, 30 m DB-5 column (J & W Scientific) held at 60° C. for 2 min, then ramped to 180° C. at 20°/min, to 230° C. at 2°/min, to 280° C. at 10°/min, and then held at 280° C. for 10 min; MS-CH4 pressure 0.45 torr, source temperature 100° C.

ClC1=C(Cl)[C@]2(Cl)[C@@H]3C[C@@H](Cl)[C@@H](Cl)[C@@H]3[C@@]1(Cl)C2(Cl)Cl (relative stereo) [cis-chlordane]
metabolism by C. triangulifer: metabolized in part to oxychlordane; also recorded: capable of metabolizing or excreting both isomers equally | amount of cis- and trans-chlordane relative to the nonachlors in C. triangulifer: Reduced quantities | relative composition of principal chlordane components or metabolites in mayflies: 4±3%

ClC1=C(Cl)[C@]2(Cl)[C@@H]3C[C@H](Cl)[C@@H](Cl)[C@@H]3[C@@]1(Cl)C2(Cl)Cl (relative stereo) [trans-chlordane]
metabolism by C. triangulifer: metabolized in part to oxychlordane; also recorded: capable of metabolizing or excreting both isomers equally | amount of cis- and trans-chlordane relative to the nonachlors in C. triangulifer: Reduced quantities | relative composition of principal chlordane components or metabolites in mayflies: 5±3%

ClC1=C(Cl)[C@]2(Cl)[C@@H]3[C@@H](Cl)[C@@H](Cl)[C@@H](Cl)[C@@H]3[C@@]1(Cl)C2(Cl)Cl [cis-nonachlor]
metabolism by C. triangulifer: poorly metabolized | bioaccumulation in C. triangulifer: clear trend for the C. triangulifer mayfly to bioaccumulate | relative composition of principal chlordane components or metabolites in mayflies: 6±2%

ClC1=C(Cl)C2(Cl)C3C4OC4C(Cl)C3C1(Cl)C2(Cl)Cl (stereo not drawn) [heptachlor epoxide]
bioaccumulation in C. triangulifer: clear trend for the C. triangulifer mayfly to bioaccumulate | relative composition of principal chlordane components or metabolites in mayflies: 18±7%

ClC1=C(Cl)C2(Cl)C3C(Cl)C=CC3C1(Cl)C2(Cl)Cl (stereo not drawn) [heptachlor]
metabolism by C. triangulifer: completely metabolize

ClC1=C(Cl)[C@]2(Cl)[C@H]3[C@H]([C@@H](Cl)[C@]4(Cl)O[C@H]34)[C@@]1(Cl)C2(Cl)Cl [oxychlordane]
bioaccumulation in C. triangulifer: clear trend for the C. triangulifer mayfly to bioaccumulate | relative composition of principal chlordane components or metabolites in mayflies: 21±13%

ClC1=C(Cl)[C@]2(Cl)[C@@H]3[C@@H](Cl)[C@H](Cl)[C@@H](Cl)[C@@H]3[C@@]1(Cl)C2(Cl)Cl [trans-nonachlor]
metabolism by C. triangulifer: poorly metabolized | bioaccumulation in C. triangulifer: clear trend for the C. triangulifer mayfly to bioaccumulate | ratio of trans-nonachlor to cis-nonachlor in C. triangulifer (range): 6.2-8.6 | relative composition of principal chlordane components or metabolites in mayflies: 45±11%
